Key:
Assay type in all cases: cell-based
[1] = test system: human bone marrow mononuclear cell (MNC) fraction; experiment: CFC assay, multi-donor study, all seven cell populations (overall toxicity); conditions: three donors, highest doses (up to 1 nM)
Protocol: Compound was dissolved in 1 ml of Iscove's Modified Dulbecco's Medium (IMDM) and a serial dose response was prepared in single log doses so that the final dose in culture ranged from 1 nanoMolar (nM) to 1×10^−16 M. All working dilutions were performed in IMDM. Cell cultures from each donor were started at different times and a fresh solution of Homspera® was prepared for each individual experiment.
Starting with human bone marrow aspirate, the mononuclear cell (MNC) fraction from each aspirate was separated from whole bone marrow using Ficoll-Paque density gradient centrifugation.
The colony-forming cell (CFC) assay was performed using optimal growth factor/cytokine concentrations. The reagents and conditions were similar to those used in Example 3, except that no ATP measurements were performed. The MNC fraction from each bone marrow donor was dissolved in IMDM and cultured at a concentration of 5,000 cells/well in a Culture Master Mix (HemoGenix, Inc., Colorado Springs, Colo.). […]
The mean, standard deviation and percent coefficient of variation was calculated for all groups, transposed and plotted as a function of donor. The percent from control values were calculated and also plotted as a function of donor. […]

[2] = test system: Colony Forming Unit—Megakaryocyte (CFU-Mk); experiment: Colony forming unit (CFU) assay, human bone marrow cells; conditions: for effect of receptor antagonist on substance P-enhanced platelet colony formation: antagonist in the presence of substance P
From the text: (§1) This study examined the formation of three different progenitor cell populations, erythrocytes, platelets and granulocytes/macrophages.
(§2) Bone marrow aspirates were obtained from three healthy donors between 18 and 35 years of age following appropriate guidelines and protocols. Bone marrow mononuclear cells were isolated using a Ficoll-Hypaque density gradient, separating red blood cells from the others. Cells from each donor were processed independently and used for setting up individual experiments to assess the effects, if any, of donor variability.
(§3) Cells (1×10^5) were plated in duplicate onto 35 mm tissue culture plates for each condition tested and set up as described in Rameshwar et al. 1993, Blood. 81:2, 391-398. Erythroid and granulocyte/macrophage cultures were plated using methylcellulose and megakaryocyte cultures (platelet precursors) used a collagen-based support (StemCell Technologies, Vancouver, Canada, catalogue #04973). […] CP 99,994 (Pfizer) was used as a neurokinin-1 receptor antagonist and SR 48968 (Sanofi) was used as a neurokinin-2 receptor antagonist.
Cultures were set up with limited cytokines and growth factors which would promote differentiation of one progenitor per plate.
Each compound was dissolved in endotoxin-free water to a final concentration of 0.1 mM. After reconstitution, the solutions were aliquoted into siliconized microcentrifuge tubes and exposed to nitrogen gas, eliminating oxygen in the head space of the enclosure. All aliquots were stored at −20° C. until use and used within one month of reconstitution. See, Rameshwar, et al. 1997, J. Immunol.
Cultures were incubated at 37° C. with 5% CO2 for approximately 14 days, after which colonies were manually enumerated using a microscope. To count megakaryocyte colonies, the cells were fixed followed by a staining procedure using the following antibodies: primary—mouse anti-human GP11b/111a, isotype control—mouse anti-trinitrophenyl, secondary—biotin-conjugated goat anti-mouse IgG, detection—avidin-alkaline phosphatase conjugate. […]

[3] = test system: Colony Forming Unit—Erythroid (CFU-E); experiment: as above; conditions: about 14 days; FIG. 2
From the text: as §1, §2, §3
(§4) The cytokines and growth factors added to Blast Forming Unit—Erythroid (BFU-E) cultures, Colony Forming Unit—Erythroid (CFU-E) cultures, and Colony Forming Unit—Granulocyte/Macrophage (CFU-GM) cultures were added as defined by proliferative units. […]

[4] = test system: Blast Forming Unit—Erythroid (BFU-E); experiment: as above; conditions: about 14 days; three donors; FIG. 1
From the text: as §1, §2, §3, §4

Compound: CC(C)C[C@H](NC(=O)CN(C)C(=O)[C@H](Cc1ccccc1)NC(=O)[C@H](Cc1ccccc1)NC(=O)[C@H](CCC(N)=O)NC(=O)[C@H](CCC(N)=O)NC(=O)[C@@H]1CCCN1C(=O)[C@H](CCCCN)NC(=O)[C@@H]1CCCN1C(=O)[C@@H](N)CCCNC(=N)N)C(=O)N[C@@H](CCS(C)(=O)=O)C(N)=O [Homspera®, [Sar^9, Met(O)2^11]-substance P]
- toxicity [1]: no apparent toxicity

Compound: Arg Pro Lys Pro Gln Gln Phe Phe Gly Leu Met [substance P]
- concentration at which effective on platelet precursors [2]: 10^−8 M
- CFU-E colony formation, enhancement from control values [3]: about 70%
- BFU-E colony formation, increase from control values [4]: ~60%

Compound: CC(=O)NC1(c2ccccc2)CCN(CC[C@H](CN(C)C(=O)c2ccccc2)c2ccc(Cl)c(Cl)c2)CC1 [SR48968]
- effect of receptor antagonist on substance P-enhanced platelet colony formation [2]: no effect on substance P activity

Compound: COc1ccccc1CN[C@H]1CCCN[C@H]1c1ccccc1 [CP-99,994]
- effect of receptor antagonist on substance P-enhanced platelet colony formation [2]: blocks the stimulatory activity of substance P

— patent US20090028834A1 (priority 2007, published 2009)
